According to patent US12673041B2, “4-aminobut-2-enamide derivatives and salt thereof” (TAIHO PHARMACEUTICAL CO., LTD., priority 2019, dated 2026):

Assays:
[1] = target: Gppcp-bound recombinant K-Ras4B G12C mutant protein (amino acids 1-169, C51S/C80L/C118S) (Homo sapiens, UniProt P01116, C118S/C51S/C80L/G12C); test: KRASG12C binding assay (LC-MS compound binding rate); details: test compound final concentration 0.5 μM, 25° C., 1 hour
Experimental: As test compounds for the KRASG12C binding assay, the compounds obtained in the “Preparation of Compounds” section were used. Sample solutions each containing a test compound were prepared in the form of a 10 mM DMSO solution.
Gppcp-bound recombinant K-Ras4B G12C mutant protein (amino acids 1-169, C51S/C80L/C118S, SEQ ID NO:1) was diluted with a buffer (1×TBS, 0.1 mM TCEP, 0.25 mM MgCl2, 50 μM Gppcp) to prepare a 50 nM protein solution. K-Ras4B is the major splicing variant of K-Ras. Amino acid sequence of residues 1 to 150 including the compounds' binding region of K-Ras4B is exactly same as that of K-Ras4A, the other splicing variant (Oncotarget. 2016 Jul. 19; 7(29): 46717-46733). A sample solution containing 10 mM test compound was diluted ten-fold with DMSO to make a 1 mM sample solution, and then diluted twenty-fold with DMSO to make a 50 μM sample solution. 1 μL of a 50 μM sample solution was added to 100 μL of a 50 nM protein solution to adjust the final concentration of a test compound to be 0.5 μM in the mixture. The mixtures were stored in an incubator at 25° C. for 1 hour, and 10 μL of a 1×TBS solution containing 2% formic acid was added to stop the reaction, followed by LC-MS measurement. LC-MS measurement was performed using Xevo G2-S Q-Tof manufactured by Waters, and reverse-phase chromatography was performed with a desalting column. A mass spectrum of positive ions was obtained by electrospray. For a mass spectrum, a spectrum of polyvalent ions was collectively converted to a molecular weight by using OpenLynx software by the MaxEnt technique, and a compound binding rate was calculated from the ratio of the signal intensity of a peak that corresponds to the molecular weight of the protein to the signal intensity of a peak that corresponds to the molecular weight of the protein conjugated with the compound.
The binding assay of the test compounds was conducted at a final concentration of 0.5 μM. A binding rate of 80% or more is rated “A”, a binding rate of 60% or more and less than 80% is rated “B”, a binding rate of 40% or more and less than 60% is rated “C”, a binding rate of 20% or more and less than 40% is rated “D”, and a binding rate of less than 20% is rated “E”. N.D.=not determined. Binding rate % is the ratio of KRAS signal intensity at the molecular weight of one molecule adduct to the sum of all the KRAS signal intensity (unbound form and adducts) in mass spectrum.
Thus, binding rate 100% means that only the one molecule adduct was observed without any unbound KRAS.

[2] = target: T1, GMPPNP-bound KRAS G12C protein and cRAF RAS-binding domain (cRAF-RBD) (Homo sapiens, UniProt P01116, G12C); test: Inhibitory activity on interaction between KRAS G12C and cRAF (Alpha technology); type: biochemical; details: GMPPNP-bound KRAS G12C incubated with compound at 25° C. for 1 hour, then cRAF-RBD, Alpha signal; read-out: IC50
T1 construct: made in house; host or cells: E. coli
Experimental: Interaction between recombinant K-Ras4B G12C mutant protein (amino acids 1-169, SEQ ID NO:2) and cRAF RAS-binding domain (cRAF-RBD, amino acids 50-132, Jena Biosciences GmbH) was measured using Alpha technology (PerkinElmer Inc.).
Recombinant KRAS G12C protein with an N-terminal His-tag was expressed in E. coli and purified by affinity chromatography. To prepare GTP-bound form and GDP-bound form of KRAS G12C protein, 50 μM KRAS G12C protein was incubated with 1 mM GMPPNP (Guanosine-5′-[(β,γ)-imido]triphosphate, Tetralithium salt) (Jena Bioscience GmbH) and 1 mM GDP, respectively, in a loading buffer (20 mM Tris-HCl (pH 7.5), 50 mM NaCl, 1 mM DTT and 2.5 mM EDTA) for 1 hour on ice. After the incubation, MgCl2 was added to a final concentration of 10 mM, followed by incubation at room temperature for 30 minutes. The mixture was allowed to pass through a NAP-5 column to remove free nucleotides and purified, and the resultant nucleotide-bound KRAS G12C protein was used for compound evaluation.
For the measurement of the inhibitory activity of compounds on interaction between KRAS G12C and cRAF-RBD, GMPPNP-bound KRAS G12C protein was incubated with various concentrations of compound in a reaction buffer (20 mM Tris-HCl (pH 7.5), 100 mM NaCl, 1 mM MgCl2, 1 mM TCEP, 0.1% Tween 20) at 25° C. for 1 hour. After the incubation, recombinant cRAF-RBD and Alpha detection reagents were added and incubated at room temperature for 1.5 hours for binding. Interaction 5 of KRAS G12C and cRAF-RBD was monitored by measuring Alpha signal. Inhibition % was calculated using the signal from the reaction without test compound (DMSO control) as 0% inhibition and the signal from the reaction using GDP-bound KRAS G12C in place of GMPPNP-bound KRAS G12C as 100% inhibition. IC50 values were calculated from dose titration curve using curve fitting by XLfit software (IDBS).

Row | SMILES | IC50 [2] [µM] | binding rate [1]
1 | CO[C@H]1CC[C@H](NC/C=C/C(=O)NC2CCN(C(=O)c3ccc4c(-c5cc6ncn(C)c6cc5C)cccn34)CC2)CC1 [Example 48, (2E)-N-{1-[8-(1,6-dimethyl-1H-1,3-benzodiazol-5-yl)indolizine-3-carbonyl]piperidin-4-yl}-4-{[trans-4-methoxycyclohexyl]amino}but-2-enamide] | > 6.7 | E (a binding rate of less than 20% is rated “E”)
2 | Cc1cc(C(=O)c2ccc3c(-c4cc5ncn(C)c5cc4C(F)(F)F)cccn23)cc(C#N)c1NC(=O)/C=C/CNC(C)(C)C [Example 50, (2E)-4-(tert-Butylamino)-N-(2-cyano-6-methyl-4-{8-[1-methyl-6-(trifluoromethyl)-1H-1,3-benzodiazol-5-yl]indolizine-3-carbonyl}phenyl)but-2-enamide] | 1.2 | E (a binding rate of less than 20% is rated “E”)
3 | Cc1ccc2c(cnn2C)c1-c1cccn2c(C(=O)c3ccc(NC(=O)/C=C/CNC(C)(C)C)c(C#N)c3)ccc12 [Example 53, (2E)-4-(tert-Butylamino)-N-{2-cyano-4-[8-(1,5-dimethyl-1H-indazol-4-yl)indolizine-3-carbonyl]phenyl}but-2-enamide] | 0.15 | A (A binding rate of 80% or more is rated “A”)
4 | CO[C@H]1CC[C@H](NC/C=C/C(=O)Nc2ccc(C(=O)c3ncc4c(-c5cc6ncn(C)c6cc5C)cccn34)cc2C#N)CC1 [Example 57, (E)-N-(2-cyano-4-(8-(1,6-dimethyl-1H-benzo[d]imidazol-5-yl)imidazo[1,5-a]pyridine-3-carbonyl)phenyl)-4-(((1r,4r)-4-methoxycyclohexyl)amino)but-2-enamide] | 0.16 | C (a binding rate of 40% or more and less than 60% is rated “C”)
5 | CO[C@H]1CC[C@H](NC/C=C/C(=O)Nc2ccc(C(=O)c3nn(C)c4c(-c5cc6ncn(C)c6cc5C)cccc34)cc2C#N)CC1 [Example 58, (E)-N-(2-cyano-4-(7-(1,6-dimethyl-1H-benzo[d]imidazol-5-yl)-1-methyl-1H-indazole-3-carbonyl)phenyl)-4-(((1r,4r)-4-methoxycyclohexyl)amino)but-2-enamide] | 0.24 | B (a binding rate of 60% or more and less than 80% is rated “B”)
6 | C=C(C)c1c(-c2cccn3c(C(=O)c4ccc(NC(=O)/C=C/CNC(C)(C)C)c(C#N)c4)ccc23)c(C)cc2c1ncn2C [Example 61, (E)-4-(tert-butylamino)-N-(2-cyano-4-(8-(1,6-dimethyl-4-(prop-1-en-2-yl)-1H-benzo[d]imidazol-5-yl)indolizine-3-carbonyl)phenyl)but-2-enamide] | 0.23 | A (A binding rate of 80% or more is rated “A”)
7 | CO[C@H]1CC[C@H](NC/C=C/C(=O)Nc2ccc(C(=O)c3ccc4c(-c5c(C)cc6c(ncn6C)c5-c5cncnc5)cccn34)cc2C#N)CC1 [Example 69, (E)-N-(2-cyano-4-(8-(1,6-dimethyl-4-(pyrimidin-5-yl)-1H-benzo[d]imidazol-5-yl)indolizine-3-carbonyl)phenyl)-4-(((1r,4r)-4-methoxycyclohexyl)amino)but-2-enamide] | 0.26 | B (a binding rate of 60% or more and less than 80% is rated “B”)
8 | CO[C@H]1CC[C@H](NC/C=C/C(=O)Nc2ccc(C(=O)c3ccc4c(-c5c(Cl)ncn5C(C)C)cccn34)cc2C#N)CC1 [Example 74, (E)-N-(4-(8-(4-chloro-1-isopropyl-1H-imidazol-5-yl)indolizine-3-carbonyl)-2-cyanophenyl)-4-(((1r,4r)-4-methoxycyclohexyl)amino)but-2-enamide] | 0.17 | B (a binding rate of 60% or more and less than 80% is rated “B”)
9 | CO[C@H]1CC[C@H](NC/C=C/C(=O)Nc2ccc(C(=O)c3ccc4c(-c5cc6nn(C)cc6cc5C)cccn34)cc2C#N)CC1 [Example 75, (E)-N-(2-cyano-4-(8-(2,5-dimethyl-2H-indazol-6-yl)indolizine-3-carbonyl)phenyl)-4-(((1r,4r)-4-methoxycyclohexyl)amino)but-2-enamide] | 0.15 | A (A binding rate of 80% or more is rated “A”)

Continued, in another order:

Row | IC50 [2] [µM] | SMILES | binding rate [1]
10 | 0.56 | CO[C@H]1CC[C@H](NC/C=C/C(=O)Nc2ccc(C(=O)c3c[nH]c4c(-c5cc6ncn(C)c6cc5C(F)(F)F)cc(Cl)cc34)cc2C#N)CC1 [Example 47, (E)-N-(4-(5-chloro-7-(1-methyl-6-(trifluoromethyl)-1H-benzo[d]imidazol-5-yl)-1H-indole-3-carbonyl)-2-cyanophenyl)-4-(((1r,4r)-4-methoxycyclohexyl)amino)but-2-enamide] | A (A binding rate of 80% or more is rated “A”)
11 | 0.26 | Cn1cc2c(Cl)c(-c3cccn4c(C(=O)c5ccc(NC(=O)/C=C/CNC(C)(C)C)c(C#N)c5)ccc34)ccc2n1 [Example 52, (2E)-4-(tert-Butylamino)-N-{4-[8-(4-chloro-2-methyl-2H-indazol-5-yl)indolizine-3-carbonyl]-2-cyanophenyl}but-2-enamide] | B (a binding rate of 60% or more and less than 80% is rated “B”)
12 | 0.18 | Cc1cc2c(cnn2C)cc1-c1cccn2c(C(=O)c3ccc(NC(=O)/C=C/CNC(C)(C)C)c(C#N)c3)ccc12 [Example 54, (2E)-4-(tert-Butylamino)-N-{2-cyano-4-[8-(1,6-dimethyl-1H-indazol-5-yl)indolizine-3-carbonyl]phenyl}but-2-enamide] | A (A binding rate of 80% or more is rated “A”)
13 | 0.14 | CO[C@H]1CC[C@H](NC/C=C/C(=O)Nc2ccc(C(=O)c3cc(Cl)c4c(-c5cc6ncn(C)c6cc5C)cccn34)cc2C#N)CC1 [Example 65, (E)-N-(4-(1-chloro-8-(1,6-dimethyl-1H-benzo[d]imidazol-5-yl)indolizine-3-carbonyl)-2-cyanophenyl)-4-(((1r,4r)-4-methoxycyclohexyl)amino)but-2-enamide] | B (a binding rate of 60% or more and less than 80% is rated “B”)
14 | 0.14 | CO[C@H]1CC[C@H](NC/C=C/C(=O)Nc2ccc(C(=O)c3ccc4c(-c5ccc6nn(C)cc6c5Cl)cccn34)cc2C#N)CC1 [Example 71, (E)-N-(4-(8-(4-chloro-2-methyl-2H-indazol-5-yl)indolizine-3-carbonyl)-2-cyanophenyl)-4-(((1r,4r)-4-methoxycyclohexyl)amino)but-2-enamide] | A (A binding rate of 80% or more is rated “A”)
